Columns and labels:
[1] = test system: JAK1/TYK2 pSTAT5 (Tyr694/699) in THP-1 cell line; assay: IFNa-stimulated JAK1/TYK2 pSTAT5 (Tyr694/699) inhibition cellular assay, AlphaLISA; assay type: cell-based; conditions: Homo sapiens; THP-1 cells, IFNa-stimulated, AlphaLISA (Assay B); read-out: Cellular_THP1_IFNa-pSTATS_TYK2
In short: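 Compound dilutions were dispensed first, and HBSS-suspended THP-1 cells were added on top (final top concentration 10000 nM, 6-fold series). After 1 h at 37 °C, IFNa (100 ng/mL as added) was applied for 30 min. Cells were then lysed and pSTAT5 was quantified by AlphaLISA.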

TYK2 JH2 = biological target: T1, TYK2 JH2 (Homo sapiens, UniProt P29597); assay: TYK2 JH2 binding assay (KINOMEscan KdELECT competitive binding); conditions: TYK2 JH2 domain, DiscoverX KINOMEscan KdELECT (Assay A); read-out: Biochemical TYK2_DiscoverX_JH2_BND_Kd
T1 construct: purchased DiscoverX (KINOMEscan KdELECT service); host or cells: E. coli BL21-derived (T7 phage display) or HEK-293
T1 sequence (P29597 589-875 limits assumed): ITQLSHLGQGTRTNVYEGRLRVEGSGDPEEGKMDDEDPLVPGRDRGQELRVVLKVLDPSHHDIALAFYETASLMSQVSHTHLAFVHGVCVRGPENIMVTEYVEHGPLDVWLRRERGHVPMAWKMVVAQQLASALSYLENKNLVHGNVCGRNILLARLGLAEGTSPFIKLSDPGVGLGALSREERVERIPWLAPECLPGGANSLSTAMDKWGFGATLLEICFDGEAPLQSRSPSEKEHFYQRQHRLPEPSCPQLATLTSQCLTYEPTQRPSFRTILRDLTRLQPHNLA
In short: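 Beads carrying a biotinylated ligand were mixed with tagged JH2 kinase and compound (11 points, 3-fold steps, 0.9% DMSO) and shaken 1 h at room temperature. After washing, kinase was released with 0.5 μM untagged ligand over 30 min and measured by qPCR to derive Kd.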

IC50 [1] [nM] | Kd (TYK2 JH2) [nM] | SMILES
≤ 500 | ≤ 100 | CNc1ncc(-c2nc3cc(N4C[C@H]5COC[C@H]5C4)ccc3o2)c2cc(NC(=O)C3CC3)ncc12 [Example 306, N-(8-(methylamino)-5-(5-((3aR,6a.S)-tetrahydro-1H-furo[3,4-c]pyrrol-5(3H)-yl)benzo[d]oxazol-2-y1)-2,7-naphthyridin-3-yl)cyclopropanecarboxamide]
≤ 500 | ≤ 100 | CNc1ncc(-c2nc3cc(N4CCN(c5ccncc5)CC4)ccc3o2)c2cc(NC(=O)C3CC3)ncc12 [Example 307, N-(8-(methylamino)-5-(5-(4-(pyridin-4-yl)piperazin-1-yl)benzo[d]oxazol-2-yl)-2,7-naphthyridin-3-yl)cyclopropanecarboxamide]
≤ 500 | ≤ 100 | CNc1ncc(-c2nc3cc(N4CCOC[C@@H]4C)ccc3o2)c2cc(NC(=O)C3CC3)ncc12 [Example 308, (S)-N-(8-(methylamino)-5-(5-(3-methylmorpholino)benzo[d]oxazol-2-yl)-2,7-naphthyridin-3-yl)cyclopropanecarboxamide]
≤ 500 | ≤ 100 | CNc1ncc(-c2nc3cc(N4CCOC[C@H]4C)ccc3o2)c2cc(NC(=O)C3CC3)ncc12 [Example 309, (R)-N-(8-(methylamino)-5-(5-(3-methylmorpholino)benzo[d]oxazol-2-yl)-2,7-naphthyridin-3-yl)cyclopropanecarboxamide]
≤ 500 | ≤ 100 | CNc1ncc(-c2nc3cc(N4CCC5(CC4)COC5)ccc3o2)c2cc(NC(=O)C3CC3)ncc12 [Example 310, N-(5-(5-(2-oxa-7-azaspiro[3.5]nonan-7-yl)benzo[d]oxazol-2-y1)~8-(methylamino)-2,7-naphthyridin-3-yl)cyclopropanecarboxamide]
≤ 500 | ≤ 100 | CNc1ncc(-c2nc3cc(OC4(C)COC4)ccc3o2)c2cc(NC(=O)C3CC3)ncc12 [Example 312, N-(8-(methylamino)-5-(5-((3-methyloxetan-3-yl)oxy)benzo[d]oxazol-2-yl)-2,7-naphthyridin-3-yl)cyclopropanecarboxamide]
≤ 500 | ≤ 100 | CNc1ncc(-c2nc3cc(N4CCCC5(CCO5)C4)ccc3o2)c2cc(NC(=O)C3CC3)ncc12 (stereo not shown) [Example 313, N-(5-(5-(1-oxa-6-azaspiro[3.5]nonan-6-yl)benzo[d]oxazol-2-yl)-8-(methylamino)-2,7-naphthyridin-3-yl)cyclopropanecarboxamide]
≤ 500 | ≤ 100 | CNc1ncc(-c2nc3cc(N4CCN(C5COC5)CC4)ccc3o2)c2cc(NC(=O)C3CC3)ncc12 [Example 314, N-(8-(methylamino)-5-(5-(4-(oxetan-3-yl)piperazin-1-yl)benzo[d]oxazol-2-yl)-2,7-naphthyridin-3-yl)cyclopropanecarboxamide]
≤ 500 | ≤ 100 | CNc1ncc(-c2nc3cc(N4C[C@@H](C)O[C@@H](C)C4)ccc3o2)c2cc(NC(=O)C3CC3)ncc12 [Example 315, N-(5-(5-((2R,6S)~2,6-dimethylmorpholino)benzo[d]oxazol-2-yl)-8-(methylamino)-2,7-naphthyridin-3-yl)cyclopropanecarboxamide]
≤ 500 | ≤ 100 | CNc1ncc(-c2nc3cc(N4CCOC(C)(C)C4)ccc3o2)c2cc(NC(=O)C3CC3)ncc12 [Example 317, N-(5-(5-(2,2-dimethylmorpholino)benzo[d]oxazol-2-yl)-8-(methylamino)-2,7-naphthyridin-3-yl)cyclopropanecarboxamide]
≤ 500 | ≤ 100 | CNc1ncc(-c2nc3cc(N4CCCOCC4)ccc3o2)c2cc(NC(=O)C3CC3)ncc12 [Example 318, N-(5-(5-(1,4-oxazepan-4-yl)benzo[d]oxazol-2-yl)-8-(methylamino)-2,7-naphthyridin-3-yl)cyclopropanecarboxamide]
≤ 500 | ≤ 100 | CNc1ncc(-c2nc3cc(N4CC(CC(F)F)C4)ccc3o2)c2cc(NC(=O)C3CC3)ncc12 [Example 319, N-(5-(5-(3-(2,2-difluoroethyl)azetidin-1-yl)benzo[d]oxazol-2-yl)-8-(methylamino)-2,7-naphthyridin-3-yl)cyclopropanecarboxamide]
≤ 500 | ≤ 100 | CNc1ncc(-c2nc3cc(N4CC[C@H]4C#N)ccc3o2)c2cc(NC(=O)C3CC3)ncc12 [Example 320, (S)—N-(5-(5-(2-cyanoazetidin-1-yl)benzo[d]oxazol-2-yl)-8-(methylamino)-2,7-naphthyridin-3-yl)cyclopropanecarboxamide]
≤ 500 | ≤ 100 | CNc1ncc(-c2nc3cc(N4CC[C@H]4C(N)=O)ccc3o2)c2cc(NC(=O)C3CC3)ncc12 [Example 321, (S)-1-(2-(6-(cyclopropanecarboxamido)-1-(methylamino)-2,7-naphthyridin-4-yl)benzo[d]oxazol-5-yl)azetidine-2-carboxamide]
≤ 500 | ≤ 100 | CNc1ncc(-c2nc3cc(N4CC5(CN(C(C)=O)C5)C4)ccc3o2)c2cc(NC(=O)C3CC3)ncc12 [Example 322, N-(5-(5-(6-acetyl-2,6-diazaspiro[3.3]heptan-2-yl)benzo[d]oxazol-2-yl)-8-(methylamino)-2,7-naphthyridin-3-yl)cyclopropanecarboxamide]
≤ 500 | ≤ 100 | CNc1ncc(-c2nc3cc(N4CC(OCCC#N)C4)ccc3o2)c2cc(NC(=O)C3CC3)ncc12 [Example 323, N-(5-(5-(3-(2-cyanoethoxy)azetidin-1-yl)benzo[d]oxazol-2-yl)-8-(methylamino)-2,7-naphthyridin-3-yl)cyclopropanecarboxamide]
≤ 500 | ≤ 100 | CNc1ncc(-c2nc3cc(N4CC(OCCOC)C4)ccc3o2)c2cc(NC(=O)C3CC3)ncc12 [Example 324, N-(5-(5-(3-(2-methoxyethoxy)azetidin-1-yl)benzo[d]oxazol-2-yl)-8-(methylamino)-2,7-naphthyridin-3-yl)cyclopropanecarboxamide]
≤ 500 | ≤ 100 | CNc1ncc(-c2nc3cc(N4CC5CC(CN(C)C5)C4)ccc3o2)c2cc(NC(=O)C3CC3)ncc12 [Example 325, N-(5-(5-(7-methyl-3,7-diazabicyclo[3.3.1]nonan-3-yl)benzo[d]oxazol-2-yl)-8-(methylamino)-2,7-naphthyridin-3-yl)cyclopropanecarboxamide]
≤ 500 | ≤ 100 | CNc1ncc(-c2nc3cc(N4CC5CC(CN(C(C)=O)C5)C4)ccc3o2)c2cc(NC(=O)C3CC3)ncc12 [Example 326, N-(5-(5-(7-acetyl-3,7-diazabicyclo[3.3.1]nonan-3-yl)benzo[d]oxazol-2-yl)-8-(methylamino)-2,7-naphthyridin-3-yl)cyclopropanecarboxamide]
≤ 500 | ≤ 100 | CNc1ncc(-c2nc3cc(N4CC5CN(C)CC(C4)O5)ccc3o2)c2cc(NC(=O)C3CC3)ncc12 [Example 327, N-(5-(5-(7-methyl-9-oxa-3,7-diazabicyclo[3.3.1]nonan-3-yl)benzo[d]oxazol-2-yl)-8-(methylamino)-2,7-naphthyridin-3-yl)cyclopropanecarboxamide]
≤ 500 | ≤ 100 | CNc1ncc(-c2nc3cc(N4CCCS4(=O)=O)ccc3o2)c2cc(NC(=O)C3CC3)ncc12 [Example 328, N-(5-(5-(1,1-dioxidoisothiazolidin-2-yl)benzo[d]oxazol-2-yl)-8-(methylamino)-2,7-naphthyridin-3-yl)cyclopropanecarboxamide]
≤ 500 | ≤ 100 | CNc1ncc(-c2nc3cc(N4CCOC(C(F)F)C4)ccc3o2)c2cc(NC(=O)C3CC3)ncc12 (stereo not shown) [Example 329, N-(5-(5-(2-(difluoromethyl)morpholino)benzo[d]oxazol-2-yl)-8-(methylamino)-2,7-naphthyridin-3-yl)cyclopropanecarboxamide]
≤ 500 | ≤ 100 | CNc1ncc(-c2nc3cc(N4CCOC(C(C)(F)F)C4)ccc3o2)c2cc(NC(=O)C3CC3)ncc12 (stereo not shown) [Example 330, N-(5-(5-(2-(1,1-difluoroethyl)morpholino)benzo[d]oxazol-2-yl)-8-(methylamino)-2,7-naphthyridin-3-yl)cyclopropanecarboxamide]
≤ 500 | ≤ 100 | CNc1ncc(-c2nc3cc(N4CCOC(CO)C4)ccc3o2)c2cc(NC(=O)C3CC3)ncc12 (stereo not shown) [Example 333, N-(5-(5-(2-(hydroxymethyl)morpholino)benzo[d]oxazol-2-yl)-8-(methylamino)-2,7-naphthyridin-3-yl)cyclopropanecarboxamide]
≤ 500 | ≤ 100 | C=C1COCCN(c2ccc3oc(-c4cnc(NC)c5cnc(NC(=O)C6CC6)cc45)nc3c2)C1 [Example 334, N-(8-(methylamino)-5-(5-(6-methylene-1,4-oxazepan-4-yl)benzo[d]oxazol-2-yl)-2,7-naphthyridin-3-yl)cyclopropanecarboxamide]

SMILES | IC50 [1] [nM] | Kd (TYK2 JH2) [nM]
CNc1ncc(-c2nc3cc(N4C5CCC4COC5)ccc3o2)c2cc(NC(=O)C3CC3)ncc12 [Example 311, N-(5-(5-(3-oxa-8-azabicyclo[3.2.1]octan-8-yl)benzo[d]oxazol-2-y1)-8-(methylamino)-2,7-naphthyridin-3-yl)cyclopropanecarboxamide] | ≤ 500 | ≤ 100

Source: patent publication US20240025906A1 (NEURON23, INC., priority 2022, published 2024)
